Values after ≈ are worked out from the molar mass of the structure shown.
How the values were obtained:
[1] = Solubility of drug in water; type: physicochemical
Log P of drug = type: physicochemical; settings: octanol/water
Description: The first property of hydrophobic drugs is that they are extremely hydrophobic. Log P, defined as the base 10 logarithm of the ratio of the drug solubility in octanol to the drug solubility in water, is a widely accepted measure of hydrophobicity. By “extremely hydrophobic” is meant that the Log P value of the drug is at least 4.0, preferably at least 4.5, and most preferably at least 5.0. Log P may be measured experimentally or calculated using methods known in the art. When using a calculated value for Log P, the highest value calculated using any generally accepted method for calculating Log P is used. Calculated Log P values are often referred to by the calculation method, such as Clog P, Alog P, and Mlog P. The Log P may also be estimated using fragmentation methods, such as Crippen's fragmentation method (27 J. Chem. Inf. Comput. Sci. 21 (1987)); Viswanadhan's fragmentation method (29 J. Chem. Inf. Comput. Sci. 163 (1989)); or Broto's fragmentation method (19 Eur. J. Med. Chem.-Chim. Theor. 71 (1984). Preferably the Log P value is calculated by using the average value estimated using Crippen's, Viswanadhan's, and Broto's fragmentation methods.

[2] = Solubility in model fasted duodenal (MFD) solution; type: physicochemical; settings: fassgf or other biorelevant, PBS containing 7.3 mM sodium taurocholic acid and 1.4 mM 1-palmitoyl-2-oleyl-sn-glycero-3-phosphocholine
[3] = Experimental: The polymer is a poorly aqueous soluble non-ionizable polymer. […] An appropriate PBS solution is an aqueous solution consisting of 20 mM sodium phosphate (Na2HPO4), 47 mM potassium phosphate (KH2PO4), 87 mM NaCl, and 0.2 mM KCl, adjusted to pH 6.5 with NaOH. A test to determine whether the polymer is poorly aqueous soluble may be performed as follows. The polymer is initially present in bulk powder form with average particle sizes of greater than about 1 micron. The polymer alone is administered at a concentration of 0.2 mg/mL to the PBS solution and stirred for approximately 1 hour at room temperature. Next, a nylon 0.45 μm filter is weighed, and the polymer solution is filtered. The filter is dried overnight at 40° C., and weighed the following morning. The amount of polymer dissolved is calculated from the amount of polymer added to the PBS solution minus the amount of polymer remaining on the filter (mg). […] First, 0.2 mg/mL of the polymer was added to a PBS solution consisting of 20 mM Na2HPO4, 47 mM KH2PO4, 87 mM NaCl, and 0.2 mM KCl, adjusted to pH 6.5 with NaOH. The polymer was stirred in the PBS solution for approximately 1 hour at room temperature. […] The amount of soluble polymer was calculated from the amount of polymer added to form the polymer solution minus the amount of polymer remaining on the filter.

solubility [1] [µg/mL]	logP (Log P of drug)	solubility [2] [µg/mL]	Amount Soluble at pH 6.5 [3] [mg/mL]	Compound
–	–	~40 (≈ 105 µM)	–	Cc1ccc(-c2cc(C(F)(F)F)nn2-c2ccc(S(N)(=O)=O)cc2)cc1 [Drug 3, 4-[5-(4-methylphenyl)-3-(trifluoromethyl)-1H-pyrazol-1-yl]benzenesulfonamide]
–	–	–	<0.001	ethylcellulose
–	–	–	0.03	cellulose acetate

Second part, the compound before the results:

Compound	solubility [1] [µg/mL]	logP (Log P of drug)	solubility [2] [µg/mL]	Amount Soluble at pH 6.5 [3] [mg/mL]
CC[C@@H]1C[C@H](N(Cc2cc(C(F)(F)F)cc(C(F)(F)F)c2)C(C)=O)c2cc(C(F)(F)F)ccc2N1C(=O)OC(C)C [Drug 2, [2R,4S]-4-[acetyl-(3,5-bis-trifluoromethyl-benzyl)-amino]-2-ethyl-6-trifluoromethyl-3,4-dihydro-2H-quinoline-1-carboxylic acid isopropyl ester]	< 1	6.7	–	–
Cc1onc(-c2ccccc2)c1-c1ccc(S(N)(=O)=O)cc1 [Drug 1, 4-(5-methyl-3-phenyl-4-isoxazolyl) benzenesulfonamide, reference compound]	~10 (≈ 31.8 µM)	~3	–	–

Reference: US20100266692A1, “NANOPARTICLES COMPRISING A NON-IONIZABLE POLYMER AND AN ANIONIC CELLULOSIC POLYMER” (priority 2007, published 2010)
